In ChEMBL document CHEMBL4507275, “Data for DCP probe BI-2545” (2021):

Assays:
[1] = target: Serine/threonine-protein kinase BRSK1 (Homo sapiens) (UniProt Q8TDC3); details: Compound concentration 1000.0 nM
[2] = target: Tyrosine-protein kinase receptor UFO (Homo sapiens) (UniProt P30530); details: Compound concentration 1000.0 nM
[3] = test system: Mast/stem cell growth factor receptor Kit (Homo sapiens), P10721 [V559D,T670I]; details: Compound concentration 1000.0 nM
[4] = target: Tyrosine-protein kinase Fyn (Homo sapiens) (UniProt P06241); details: Compound concentration 1000.0 nM
[5] = test system: Tyrosine-protein kinase ABL1 (Homo sapiens), P00519 [E255K]; details: Compound concentration 1000.0 nM
[6] = target: Calcium/calmodulin-dependent protein kinase type II subunit delta (Homo sapiens) (UniProt Q13557); details: Compound concentration 1000.0 nM
Chain of Calcium/calmodulin-dependent protein kinase type II subunit delta (Homo sapiens) (Q13557 whole entry): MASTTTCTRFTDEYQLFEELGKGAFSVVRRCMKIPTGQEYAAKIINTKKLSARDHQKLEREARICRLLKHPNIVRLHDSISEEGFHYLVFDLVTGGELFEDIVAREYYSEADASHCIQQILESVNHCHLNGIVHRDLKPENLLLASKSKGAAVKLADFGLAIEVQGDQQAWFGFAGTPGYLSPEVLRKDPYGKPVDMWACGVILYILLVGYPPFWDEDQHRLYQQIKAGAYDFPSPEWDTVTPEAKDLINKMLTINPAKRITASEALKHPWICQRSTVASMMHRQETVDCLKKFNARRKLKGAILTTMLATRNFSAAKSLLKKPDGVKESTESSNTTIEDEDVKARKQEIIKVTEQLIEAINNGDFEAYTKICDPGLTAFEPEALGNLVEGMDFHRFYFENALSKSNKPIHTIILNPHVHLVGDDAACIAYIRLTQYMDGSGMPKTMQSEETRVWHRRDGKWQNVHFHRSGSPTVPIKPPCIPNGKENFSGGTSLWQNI

[7] = target: Cyclin-dependent kinase 9 (Homo sapiens) (UniProt P50750); details: Compound concentration 1000.0 nM
[8] = target: TRAF2 and NCK-interacting protein kinase (Homo sapiens) (UniProt Q9UKE5); details: Compound concentration 1000.0 nM
[9] = target: 5-hydroxytryptamine receptor 1D (Homo sapiens) (UniProt P28221); details: Compound concentration 10.0 uM
[10] = target: Ephrin type-A receptor 6 (Homo sapiens) (UniProt Q9UF33); details: Compound concentration 1000.0 nM
[11] = target: Serine/threonine-protein kinase SIK2 (Homo sapiens) (UniProt Q9H0K1); details: Compound concentration 1000.0 nM
[12] = target: Sigma non-opioid intracellular receptor 1 (Homo sapiens, UniProt Q99720); details: Compound concentration 10.0 uM
[13] = target: Serine/threonine-protein kinase Nek10 (Homo sapiens) (UniProt Q6ZWH5); details: Compound concentration 1000.0 nM
[14] = target: Receptor tyrosine-protein kinase erbB-3 (Homo sapiens) (UniProt P21860); details: Compound concentration 1000.0 nM
[15] = test system: Epidermal growth factor receptor (Homo sapiens), P00533 [L858R,T790M]; details: Compound concentration 1000.0 nM
[16] = target: Sodium-dependent serotonin transporter (Homo sapiens) (UniProt P31645); details: Compound concentration 10.0 uM
[17] = test system: Tyrosine-protein kinase ABL1 (Homo sapiens), P00519 [T315I]; details: Compound concentration 1000.0 nM
[18] = target: Beta-1 adrenergic receptor (Homo sapiens) (UniProt P08588); details: Compound concentration 10.0 uM
[19] = target: Casein kinase II subunit alpha (Homo sapiens) (UniProt P68400); details: Compound concentration 1000.0 nM
Chain of Casein kinase II subunit alpha (Homo sapiens) (P68400 whole entry, looked up): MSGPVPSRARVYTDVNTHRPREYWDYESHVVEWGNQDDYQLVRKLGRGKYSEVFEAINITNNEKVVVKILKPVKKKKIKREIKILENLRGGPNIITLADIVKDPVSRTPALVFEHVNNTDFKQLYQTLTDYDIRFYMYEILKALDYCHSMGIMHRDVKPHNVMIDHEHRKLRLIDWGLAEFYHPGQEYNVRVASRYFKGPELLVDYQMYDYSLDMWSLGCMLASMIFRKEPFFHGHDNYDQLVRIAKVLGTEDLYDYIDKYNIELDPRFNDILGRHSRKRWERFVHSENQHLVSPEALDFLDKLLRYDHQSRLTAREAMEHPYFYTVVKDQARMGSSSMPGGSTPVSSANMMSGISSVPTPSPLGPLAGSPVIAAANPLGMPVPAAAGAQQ

[20] = target: Ephrin type-A receptor 4 (Homo sapiens) (UniProt P54764); details: Compound concentration 1000.0 nM
[21] = target: Myosin light chain kinase (Homo sapiens) (UniProt Q32MK0); details: Compound concentration 1000.0 nM
[22] = target: MAP/microtubule affinity-regulating kinase 3 (Homo sapiens) (UniProt P27448); details: Compound concentration 1000.0 nM
[23] = target: Serine/threonine-protein kinase SIK3 (Homo sapiens) (UniProt Q9Y2K2); details: Compound concentration 1000.0 nM
Chain of Serine/threonine-protein kinase SIK3 (Homo sapiens) (Q9Y2K2 whole entry, looked up): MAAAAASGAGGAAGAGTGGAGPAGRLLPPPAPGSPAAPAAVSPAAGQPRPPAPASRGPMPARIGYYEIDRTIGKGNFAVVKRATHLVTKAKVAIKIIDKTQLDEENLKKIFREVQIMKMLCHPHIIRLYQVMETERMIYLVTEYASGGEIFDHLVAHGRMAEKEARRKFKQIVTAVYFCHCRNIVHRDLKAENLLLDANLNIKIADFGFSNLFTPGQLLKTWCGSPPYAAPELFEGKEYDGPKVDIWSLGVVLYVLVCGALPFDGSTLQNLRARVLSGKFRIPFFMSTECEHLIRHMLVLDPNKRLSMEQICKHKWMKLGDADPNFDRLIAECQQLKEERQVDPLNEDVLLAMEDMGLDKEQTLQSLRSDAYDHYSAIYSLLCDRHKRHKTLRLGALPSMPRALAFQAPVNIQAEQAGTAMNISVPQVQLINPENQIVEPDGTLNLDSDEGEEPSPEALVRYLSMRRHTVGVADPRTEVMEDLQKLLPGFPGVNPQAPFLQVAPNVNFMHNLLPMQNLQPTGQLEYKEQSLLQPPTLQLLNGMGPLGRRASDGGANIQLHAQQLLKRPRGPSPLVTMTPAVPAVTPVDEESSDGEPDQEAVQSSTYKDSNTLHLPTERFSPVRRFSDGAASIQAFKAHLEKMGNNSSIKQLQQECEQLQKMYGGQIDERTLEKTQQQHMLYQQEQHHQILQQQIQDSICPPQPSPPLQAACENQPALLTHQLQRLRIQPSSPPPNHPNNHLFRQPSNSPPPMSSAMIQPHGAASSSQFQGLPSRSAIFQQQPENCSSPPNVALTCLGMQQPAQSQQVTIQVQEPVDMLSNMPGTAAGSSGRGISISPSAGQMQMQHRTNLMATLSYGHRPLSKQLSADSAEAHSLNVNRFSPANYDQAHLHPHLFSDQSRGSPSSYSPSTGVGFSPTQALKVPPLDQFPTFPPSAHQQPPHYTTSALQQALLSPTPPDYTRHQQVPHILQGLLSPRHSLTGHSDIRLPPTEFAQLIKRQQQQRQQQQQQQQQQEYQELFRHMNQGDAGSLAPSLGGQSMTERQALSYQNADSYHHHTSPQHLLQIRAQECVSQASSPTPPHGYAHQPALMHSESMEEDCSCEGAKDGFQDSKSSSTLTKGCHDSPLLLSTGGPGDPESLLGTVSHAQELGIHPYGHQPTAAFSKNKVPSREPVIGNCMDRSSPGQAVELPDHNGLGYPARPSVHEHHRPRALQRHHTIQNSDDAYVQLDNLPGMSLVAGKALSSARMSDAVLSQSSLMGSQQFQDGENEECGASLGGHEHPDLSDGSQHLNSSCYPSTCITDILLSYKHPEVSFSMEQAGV

[24] = target: Dual specificity mitogen-activated protein kinase kinase 5 (Homo sapiens) (UniProt Q13163); details: Compound concentration 1000.0 nM
[25] = target: RAC-alpha serine/threonine-protein kinase (Homo sapiens) (UniProt P31749); details: Compound concentration 1000.0 nM
[26] = target: Bone morphogenetic protein receptor type-1B (Homo sapiens) (UniProt O00238); details: Compound concentration 1000.0 nM
[27] = target: Serine/threonine-protein kinase D1 (Homo sapiens) (UniProt Q15139); details: Compound concentration 1000.0 nM
[28] = target: Tyrosine-protein kinase JAK2 (Homo sapiens) (UniProt O60674); details: Compound concentration 1000.0 nM
[29] = test system: Phosphatidylinositol 4,5-bisphosphate 3-kinase catalytic subunit alpha isoform (Homo sapiens), P42336 [I800L]; details: Compound concentration 1000.0 nM
[30] = target: 5'-AMP-activated protein kinase catalytic subunit alpha-1 (Homo sapiens) (UniProt Q13131); details: Compound concentration 1000.0 nM
Chain of 5'-AMP-activated protein kinase catalytic subunit alpha-1 (Homo sapiens) (Q13131 whole entry, looked up): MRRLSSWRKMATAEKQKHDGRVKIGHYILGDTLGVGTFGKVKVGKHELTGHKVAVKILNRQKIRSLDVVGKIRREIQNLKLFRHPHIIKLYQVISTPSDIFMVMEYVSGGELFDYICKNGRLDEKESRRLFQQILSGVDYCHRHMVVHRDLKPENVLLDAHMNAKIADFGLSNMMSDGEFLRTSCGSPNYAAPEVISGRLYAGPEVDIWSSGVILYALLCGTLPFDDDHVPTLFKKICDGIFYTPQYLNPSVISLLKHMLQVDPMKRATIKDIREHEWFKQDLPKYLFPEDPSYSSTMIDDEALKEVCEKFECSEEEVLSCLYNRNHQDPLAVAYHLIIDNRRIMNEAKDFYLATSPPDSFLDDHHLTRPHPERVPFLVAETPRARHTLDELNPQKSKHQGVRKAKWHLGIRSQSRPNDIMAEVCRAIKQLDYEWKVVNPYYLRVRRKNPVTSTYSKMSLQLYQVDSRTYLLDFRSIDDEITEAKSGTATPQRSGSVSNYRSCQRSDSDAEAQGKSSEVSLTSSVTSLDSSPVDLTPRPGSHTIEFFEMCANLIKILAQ

[31] = target: Ribosomal protein S6 kinase alpha-2 (Homo sapiens) (UniProt Q15349); details: Compound concentration 1000.0 nM
[32] = target: Dual specificity tyrosine-phosphorylation-regulated kinase 2 (Homo sapiens) (UniProt Q92630); details: Compound concentration 1000.0 nM
[33] = target: Ankyrin repeat and protein kinase domain-containing protein 1 (Homo sapiens) (UniProt Q8NFD2); details: Compound concentration 1000.0 nM
[34] = target: ALK tyrosine kinase receptor (Homo sapiens) (UniProt Q9UM73); details: Compound concentration 1000.0 nM
[35] = target: Activin receptor type-2B (Homo sapiens) (UniProt Q13705); details: Compound concentration 1000.0 nM
[36] = target: Casein kinase I isoform alpha-like (Homo sapiens) (UniProt Q8N752); details: Compound concentration 1000.0 nM
Chain of Casein kinase I isoform alpha-like (Homo sapiens) (Q8N752 whole entry, canonical isoform): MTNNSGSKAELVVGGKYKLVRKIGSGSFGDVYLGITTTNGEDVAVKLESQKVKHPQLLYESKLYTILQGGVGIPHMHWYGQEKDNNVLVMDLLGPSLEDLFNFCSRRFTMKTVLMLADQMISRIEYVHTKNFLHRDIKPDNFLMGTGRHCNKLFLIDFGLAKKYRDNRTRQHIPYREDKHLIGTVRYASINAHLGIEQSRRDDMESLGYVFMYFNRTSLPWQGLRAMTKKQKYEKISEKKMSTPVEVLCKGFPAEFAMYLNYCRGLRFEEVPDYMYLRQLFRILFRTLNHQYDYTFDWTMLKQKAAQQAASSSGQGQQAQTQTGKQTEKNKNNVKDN

[37] = target: Delta-type opioid receptor (Homo sapiens) (UniProt P41143); details: Compound concentration 10.0 uM
[38] = target: Cyclin-dependent kinase-like 5 (Homo sapiens) (UniProt O76039); details: Compound concentration 1000.0 nM
[39] = target: Mitogen-activated protein kinase kinase kinase 14 (Homo sapiens) (UniProt Q99558); details: Compound concentration 1000.0 nM
Chain of Mitogen-activated protein kinase kinase kinase 14 (Homo sapiens) (Q99558 whole entry, looked up): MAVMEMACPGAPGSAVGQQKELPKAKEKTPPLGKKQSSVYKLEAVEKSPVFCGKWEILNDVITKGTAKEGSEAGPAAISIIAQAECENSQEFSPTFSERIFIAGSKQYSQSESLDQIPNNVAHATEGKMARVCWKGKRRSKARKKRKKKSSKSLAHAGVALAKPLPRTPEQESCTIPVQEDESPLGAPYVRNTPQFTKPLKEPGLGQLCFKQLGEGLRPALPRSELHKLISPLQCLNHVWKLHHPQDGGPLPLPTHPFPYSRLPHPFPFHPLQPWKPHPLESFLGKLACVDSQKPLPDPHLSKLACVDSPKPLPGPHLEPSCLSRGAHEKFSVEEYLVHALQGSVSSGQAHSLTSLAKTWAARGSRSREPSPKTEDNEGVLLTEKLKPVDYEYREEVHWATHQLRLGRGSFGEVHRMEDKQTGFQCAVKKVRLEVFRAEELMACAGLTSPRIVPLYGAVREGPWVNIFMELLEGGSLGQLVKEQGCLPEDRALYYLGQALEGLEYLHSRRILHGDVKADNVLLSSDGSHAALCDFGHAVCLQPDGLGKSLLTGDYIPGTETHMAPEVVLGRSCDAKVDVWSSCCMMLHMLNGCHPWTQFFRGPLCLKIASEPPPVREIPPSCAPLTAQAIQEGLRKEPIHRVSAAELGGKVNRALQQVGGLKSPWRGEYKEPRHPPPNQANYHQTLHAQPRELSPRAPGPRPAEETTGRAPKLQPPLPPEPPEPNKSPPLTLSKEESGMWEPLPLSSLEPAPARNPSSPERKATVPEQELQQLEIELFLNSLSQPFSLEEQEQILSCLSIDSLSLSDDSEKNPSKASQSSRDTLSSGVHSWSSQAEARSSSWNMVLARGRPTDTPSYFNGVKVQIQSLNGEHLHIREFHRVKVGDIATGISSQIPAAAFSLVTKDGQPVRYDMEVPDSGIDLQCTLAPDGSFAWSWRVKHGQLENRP

[40] = target: Cyclin-dependent kinase 18 (Homo sapiens) (UniProt Q07002); details: Compound concentration 1000.0 nM
[41] = target: Ribosomal protein S6 kinase alpha-6 (Homo sapiens) (UniProt Q9UK32); details: Compound concentration 1000.0 nM
[42] = test system: Mast/stem cell growth factor receptor Kit (Homo sapiens), P10721 [V559D]; details: Compound concentration 1000.0 nM
[43] = target: Tyrosine-protein kinase ABL2 (Homo sapiens) (UniProt P42684); details: Compound concentration 1000.0 nM
[44] = target: Beta-3 adrenergic receptor (Homo sapiens) (UniProt P13945); details: Compound concentration 10.0 uM
[45] = target: Mitogen-activated protein kinase kinase kinase 5 (Homo sapiens) (UniProt Q99683); details: Compound concentration 1000.0 nM

Chain of Mast/stem cell growth factor receptor Kit (Homo sapiens), P10721 [V559D,T670I] (P10721 whole entry V559D/T670I): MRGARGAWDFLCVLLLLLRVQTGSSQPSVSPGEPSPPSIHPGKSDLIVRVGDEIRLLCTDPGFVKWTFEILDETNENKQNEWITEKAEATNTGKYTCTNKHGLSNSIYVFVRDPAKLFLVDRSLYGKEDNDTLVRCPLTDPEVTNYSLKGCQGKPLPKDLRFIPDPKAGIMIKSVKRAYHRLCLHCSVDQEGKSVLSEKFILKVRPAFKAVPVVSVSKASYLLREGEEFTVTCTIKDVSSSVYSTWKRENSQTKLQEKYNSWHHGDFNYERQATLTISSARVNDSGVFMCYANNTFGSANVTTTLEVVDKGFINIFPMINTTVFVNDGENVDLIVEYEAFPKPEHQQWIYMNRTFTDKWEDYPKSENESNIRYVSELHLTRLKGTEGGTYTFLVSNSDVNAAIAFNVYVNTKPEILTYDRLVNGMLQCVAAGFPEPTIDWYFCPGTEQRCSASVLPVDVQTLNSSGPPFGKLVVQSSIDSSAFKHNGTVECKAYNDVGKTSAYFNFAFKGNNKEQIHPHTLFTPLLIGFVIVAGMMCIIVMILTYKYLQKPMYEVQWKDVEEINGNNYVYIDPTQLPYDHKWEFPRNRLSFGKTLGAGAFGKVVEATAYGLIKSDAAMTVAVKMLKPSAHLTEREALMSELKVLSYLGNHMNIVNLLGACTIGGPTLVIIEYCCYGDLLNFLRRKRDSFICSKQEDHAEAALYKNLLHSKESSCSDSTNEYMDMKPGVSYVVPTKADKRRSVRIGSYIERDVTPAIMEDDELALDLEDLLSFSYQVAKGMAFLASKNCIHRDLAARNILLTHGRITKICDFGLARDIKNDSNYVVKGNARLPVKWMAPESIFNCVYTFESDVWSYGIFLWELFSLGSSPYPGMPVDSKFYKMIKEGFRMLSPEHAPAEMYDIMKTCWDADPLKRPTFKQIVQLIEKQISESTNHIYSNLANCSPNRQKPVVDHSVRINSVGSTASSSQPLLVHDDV

Cc1nccc(COC(=O)N2C[C@@H]3[C@@H](CNC(=O)c4ccc5[nH]nnc5c4)[C@@H]3C2)n1 [BI 3017]
residual activity [1]: 100% | residual activity [2]: 88% | residual activity [3]: 95% | residual activity [4]: 100% | residual activity [5]: 89% | residual activity [6]: 100% | residual activity [7]: 100% | residual activity [8]: 100% | inhibition [9]: 23% | residual activity [10]: 98% | residual activity [11]: 92% | inhibition [12]: 3.21% | residual activity [13]: 92% | residual activity [14]: 59% | residual activity [15]: 100% | inhibition [16]: -3.25% | residual activity [17]: 95% | inhibition [18]: 12.4% | residual activity [19]: 81% | residual activity [20]: 98% | residual activity [21]: 97% | residual activity [22]: 95% | residual activity [23]: 100% | residual activity [24]: 100% | residual activity [25]: 100% | residual activity [26]: 100% | residual activity [27]: 100% | residual activity [28]: 93% | residual activity [29]: 73% | residual activity [30]: 92% | residual activity [31]: 91% | residual activity [32]: 94% | residual activity [33]: 100% | residual activity [34]: 87% | residual activity [35]: 91% | residual activity [36]: 100% | inhibition [37]: -1.41% | residual activity [38]: 87% | residual activity [39]: 66% | residual activity [40]: 100% | residual activity [41]: 100% | residual activity [42]: 86% | residual activity [43]: 90% | inhibition [44]: -6.02% | residual activity [45]: 95%

O=C(NC[C@@H]1[C@H]2CN(C(=O)OCc3cc(C(F)(F)F)cc(C(F)(F)F)c3)C[C@@H]12)c1ccc2[nH]nnc2c1 [BI 2545]
residual activity [1]: 89% | residual activity [2]: 87% | residual activity [3]: 100% | residual activity [4]: 85% | residual activity [5]: 92% | residual activity [6]: 100% | residual activity [7]: 91% | residual activity [8]: 98% | inhibition [9]: 43.2% | residual activity [10]: 69% | residual activity [11]: 100% | inhibition [12]: 51.2% | residual activity [13]: 73% | residual activity [14]: 96% | residual activity [15]: 80% | inhibition [16]: -9.34% | residual activity [17]: 93% | inhibition [18]: 13.3% | residual activity [19]: 84% | residual activity [20]: 82% | residual activity [21]: 98% | residual activity [22]: 100% | residual activity [23]: 79% | residual activity [24]: 100% | residual activity [25]: 100% | residual activity [26]: 95% | residual activity [27]: 100% | residual activity [28]: 100% | residual activity [29]: 83% | residual activity [30]: 100% | residual activity [31]: 84% | residual activity [32]: 77% | residual activity [33]: 73% | residual activity [34]: 79% | residual activity [35]: 100% | residual activity [36]: 86% | inhibition [37]: 19.6% | residual activity [38]: 100% | residual activity [39]: 77% | residual activity [40]: 100% | residual activity [41]: 67% | residual activity [42]: 88% | residual activity [43]: 98% | inhibition [44]: 31.5% | residual activity [45]: 13%
